Each structure is given as a SMILES string.

From patent publication US20120040951A1, “HETEROARYL COMPOUNDS USEFUL AS RAF KINASE INHIBITORS” (priority 2008, published 2012) come the findings set out here.

One assay concerns the target V599E Raf (Homo sapiens, UniProt P15056, V600E). In words: Biochemical FRET assay, mutant Raf (phosphorylation of MEK). As to conditions: 0.125 nM V599E Raf, 100 nM biotin-MEK, 25 μM ATP, read-out: Raf (mut) inhibition. In outline:
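V599E Raf (0.125 nM) preincubated 20 min with inhibitor and 100 nM biotin-MEK in HEPES pH 7.4 with Mg2+/Mn2+, then reacted with 25 μM ATP for 60 min at room temperature. EDTA-stopped; phospho-MEK1/2 (Ser217/221) detected by Eu/APC TR-FRET after 90 min.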

Assay [1] concerns phospho-ERK in melanoma derived WM-266-4 cells. In words: Mechanistic cellular assay for Raf kinase activity (phospho-ERK, Bio-Plex). As to conditions: Homo sapiens, treated 1-2 hr at 37° C., serum free medium, read-out: pERK EC50. It counts as cell-based. In a few lines: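 WM-266-4 melanoma cells (wild-type/V600D BRaf) grown overnight in 10% FBS RPMI, then treated 1–2 h at 37 °C in serum-free RPMI with eight 3-fold dilutions of compound (from 5 mM DMSO stock, 1000× dilution). Lysate phospho-ERK1,2 quantified by Bio-Plex bead immunoassay.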

V599E Raf, sequence (P15056 whole entry V600E): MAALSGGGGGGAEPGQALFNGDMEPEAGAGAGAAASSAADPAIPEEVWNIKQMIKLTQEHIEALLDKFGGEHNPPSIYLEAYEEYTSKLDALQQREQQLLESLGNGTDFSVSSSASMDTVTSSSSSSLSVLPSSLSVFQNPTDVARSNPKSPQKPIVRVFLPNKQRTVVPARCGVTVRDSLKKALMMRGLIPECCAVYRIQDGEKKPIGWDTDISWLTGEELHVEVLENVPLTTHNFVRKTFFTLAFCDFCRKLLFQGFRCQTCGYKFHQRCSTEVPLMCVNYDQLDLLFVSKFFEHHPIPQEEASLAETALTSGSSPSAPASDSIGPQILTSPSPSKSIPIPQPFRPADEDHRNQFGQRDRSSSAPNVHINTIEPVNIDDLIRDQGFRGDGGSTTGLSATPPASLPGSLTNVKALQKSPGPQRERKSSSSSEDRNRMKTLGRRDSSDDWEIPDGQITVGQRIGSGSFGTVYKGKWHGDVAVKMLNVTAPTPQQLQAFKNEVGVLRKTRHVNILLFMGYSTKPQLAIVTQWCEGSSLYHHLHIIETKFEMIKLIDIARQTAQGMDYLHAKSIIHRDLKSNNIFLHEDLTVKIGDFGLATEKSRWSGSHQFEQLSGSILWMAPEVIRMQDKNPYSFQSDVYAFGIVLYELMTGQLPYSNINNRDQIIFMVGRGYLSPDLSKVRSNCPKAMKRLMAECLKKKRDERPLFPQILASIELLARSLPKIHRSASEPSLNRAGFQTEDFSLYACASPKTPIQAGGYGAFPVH

What is called EC50 is the concentration at which the effect is half-maximal. In the case of `C[C@@H](NC(=O)c1cnn2ccccc12)c1cc(C(=O)Nc2ccc(Br)c(C(F)(F)F)c2)on1` [Example 209], the IC50 at V599E Raf was 100 to 1000 nM. For the same compound, the EC50 in assay [1] was at most 100 nM.

`C[C@@H](NC(=O)c1cnn2ccccc12)c1cc(C(=O)Nc2cccc(OC(F)(F)F)c2)on1` [Example 217]: the IC50 at V599E Raf was at most 100 nM. In assay [1], the EC50 was 100 to 1000 nM.

Regarding `CC(NC(=O)c1cc2c(cn1)ncn2CCN(C)C)c1cnc(Nc2ccc(C(F)(F)F)cc2)s1` (stereo not shown) [Example 7], the IC50 on V599E Raf was at most 100 nM. The EC50 in assay [1] was at most 100 nM.

As to `COc1nc(C(C)(C)C)ncc1Nc1ncc(C(C)NC(=O)c2cc3c(cn2)ncn3C)s1` (stereo not shown) [Example 270], on V599E Raf, the IC50 was at most 100 nM. The EC50 in assay [1] is at most 100 nM.

As to `C[C@@H](NC(=O)c1ccc2[nH]c(C(F)(F)F)nc2c1)c1ncc(C(=O)Nc2cc(C(F)(F)F)c(Cl)cn2)s1` [Example 62], the IC50 at V599E Raf is 100 to 1000 nM. Further, the EC50 in assay [1] was 1000 to 10000 nM.

As to `O=C(Nc1ccc(Cl)c(C(F)(F)F)c1)c1ccc(CNC(=O)c2cnn3ccccc23)cc1` [Example 231], the IC50 on V599E Raf lay within 100 to 1000 nM. For the same compound, the EC50 in assay [1] was 1000 to 10000 nM.

Take `CCn1cnc2cnc(C(=O)NC(C)c3cnc(Nc4ccc(C(F)(F)F)cc4)s3)nc21` (stereo not shown) [Example 198]: the IC50 on V599E Raf is at most 100 nM. The EC50 in assay [1] is 100 to 1000 nM.

Take `CC(NC(=O)c1cnc2n1CCCN2)c1cnc(Nc2ccc(C(F)(F)F)cc2)s1` (stereo not shown) [Example 177]: the IC50 on V599E Raf was at most 100 nM. For the same compound, in assay [1], the EC50 fell in the range of 100 to 1000 nM.

As to `Cc1n[nH]c(C)c1C(=O)N[C@H](C)c1ncc(C(=O)Nc2cc(C(F)(F)F)c(Cl)cn2)s1` [Example 111], the IC50 on V599E Raf was at most 100 nM. Besides, in assay [1], the EC50 fell in the range of 1000 to 10000 nM.

With `C[C@@H](NC(=O)c1cnc(CN2CCCC2)n1C)c1ncc(C(=O)Nc2cc(C(F)(F)F)c(Cl)cn2)s1` [Example 155], the IC50 on V599E Raf was at most 100 nM. For the same compound, the EC50 in assay [1] fell in the range of 1000 to 10000 nM.

For `C[C@@H](NC(=O)c1cc2c(cn1)ncn2CCS(C)(=O)=O)c1cnc(Nc2ccc(C(F)(F)F)cc2)s1` [Example 185], on V599E Raf, the IC50 is at most 100 nM. For the same compound, the EC50 in assay [1] was in the range of 100 to 1000 nM.

On to `C[C@@H](NC(=O)c1cc2c(cn1)ncn2C1CN(C)C1)c1cnc(Nc2ccc(C(F)(F)F)cc2)s1` [Example 182], for which the IC50 on V599E Raf was at most 100 nM. In addition, the EC50 in assay [1] lay in the range of 100 to 1000 nM.

Take `C[C@H](NC(=O)c1cc2c(cn1)ncn2C1CCC1)c1cnc(Nc2ccc(C(F)(F)F)cc2)cn1` [Example 187]: on V599E Raf, the IC50 lay in the range of 100 to 1000 nM. Moreover, the concentration giving a half-maximal response (EC50) in assay [1] is 1000 to 10000 nM.

With `C[C@@H](NC(=O)c1cc2c(cn1)ncn2C1CCC1)c1cnc(Nc2ccc(C(F)(F)F)cc2)s1` [Example 176], on V599E Raf, the IC50 is at most 100 nM. For the same compound, the EC50 in assay [1] was at most 100 nM.

Consider `CNc1nc(C(C)(C)C)ncc1Nc1ncc(C(C)NC(=O)c2cc3c(cn2)ncn3C)s1` (stereo not shown) [Example 280], for which the IC50 on V599E Raf is at most 100 nM. For the same compound, the EC50 in assay [1] was in the range of 100 to 1000 nM.

Turning to `CC(NC(=O)c1cc2c(cn1)ncn2C1CCC1)c1cnc(Nc2cnc(C(C)(C)C)nc2)s1` (stereo not shown) [Example 286], on V599E Raf, the IC50 is at most 100 nM. The concentration giving a half-maximal response (EC50) in assay [1] was at most 100 nM.

Consider `COc1cc(C(F)(F)F)ccc1Nc1cnc(C(C)NC(=O)c2cc3c(cn2)ncn3C)cn1` (stereo not shown) [Example 265b], for which, at V599E Raf, the IC50 was at most 100 nM. In addition, in assay [1], the concentration giving a half-maximal response (EC50) lay in the range of 100 to 1000 nM.

For the compound `CC(NC(=O)c1cc2c(cn1)ncn2C1CCC1)c1cnc(Nc2ccc(Cl)c(C(F)(F)F)c2)cn1` (stereo not shown) [Example 234], the IC50 at V599E Raf was at most 100 nM. The EC50 in assay [1] fell in the range of 100 to 1000 nM.

With `C[C@@H](NC(=O)c1cnn(C)c1CNC1CC1)c1ncc(C(=O)Nc2cc(C(F)(F)F)c(Cl)cn2)s1` [Example 133], at V599E Raf, the IC50 is 100 to 1000 nM. The EC50 in assay [1] lay in the range of 100 to 1000 nM.

`CC(=O)N1CCn2c(C(=O)N[C@H](C)c3ncc(C(=O)Nc4cc(C(F)(F)F)c(Cl)cn4)s3)cnc2C1` [Example 316]: the IC50 at V599E Raf was 100 to 1000 nM. The EC50 in assay [1] was 1000 to 10000 nM.

`C[C@@H](NC(=O)c1cnn(-c2ccccn2)c1)c1ncc(C(=O)Nc2cc(C(F)(F)F)c(Cl)cn2)s1` [Example 119]: the IC50 at V599E Raf is at most 100 nM. Further, the EC50 in assay [1] lay within 1000 to 10000 nM.

In the case of `CC(NC(=O)c1cc2c(cn1)ncn2CC(=O)O)c1cnc(Nc2ccc(C(F)(F)F)cc2)s1` (stereo not shown) [Example 354], the IC50 at V599E Raf was at most 100 nM. Further, the concentration giving a half-maximal response (EC50) in assay [1] lay within 1000 to 10000 nM.

For `CC(NC(=O)c1cc2c(cn1)ncn2C)c1cnc(Nc2ccc(F)c(C(C)(C)C(F)(F)F)c2)s1` (stereo not shown) [Example 290], at V599E Raf, the IC50 was at most 100 nM. Moreover, the EC50 in assay [1] was at most 100 nM.

With `CCN1CC(n2cnc3cnc(C(=O)N[C@H](C)c4cnc(Nc5ccc(C(F)(F)F)cc5)s4)cc32)C1` [Example 30], the IC50 on V599E Raf is at most 100 nM. Further, the concentration for a half-maximal effect (EC50) in assay [1] was at most 100 nM.

`CC(NC(=O)c1cc2c(cn1)ncn2C)c1ncc(C(=O)Nc2cc(C(C)(C)C)on2)s1` (stereo not shown) [Example 43]: the IC50 on V599E Raf is at most 100 nM. In assay [1], the EC50 was at most 100 nM.

Regarding `C[C@@H](NC(=O)c1cc2ncn(C)c2cn1)c1ncc(C(=O)Nc2cc(C(F)(F)F)c(Cl)cn2)s1` [Example 41], the IC50 at V599E Raf is at most 100 nM. Further, in assay [1], the concentration for a half-maximal effect (EC50) was 100 to 1000 nM.

On to `CC(NC(=O)c1cnn2cc(-c3cccnc3)ccc12)c1ncc(C(=O)Nc2cc(C(F)(F)F)c(Cl)cn2)s1` (stereo not shown) [Example 320], for which the IC50 at V599E Raf was at most 100 nM. The concentration for a half-maximal effect (EC50) in assay [1] is at most 100 nM.

Take `Cc1cn(-c2cncc(C(=O)NC(C)c3ncc(C(=O)Nc4cc(C(F)(F)F)c(Cl)cn4)s3)c2)cn1` (stereo not shown) [Example 51]: on V599E Raf, the IC50 lay within 100 to 1000 nM. Also, the 50% effective concentration (EC50) in assay [1] was 1000 to 10000 nM.

Consider `CC(NC(=O)c1cc2c(cn1)ncn2C)c1cnc(Nc2cnc(C(F)(F)F)nc2)s1` (stereo not shown) [Example 261], for which the IC50 on V599E Raf was at most 100 nM. Besides, the EC50 in assay [1] is 100 to 1000 nM.

For `CC(NC(=O)c1cc2nc[nH]c2cn1)c1cnc(Nc2ccc(C(F)(F)F)cc2)s1` (stereo not shown) [Example 5], the IC50 on V599E Raf is at most 100 nM. Besides, in assay [1], the EC50 was 100 to 1000 nM.

For the compound `CNCc1c(C(=O)N[C@H](C)c2ncc(C(=O)Nc3cc(C(F)(F)F)c(Cl)cn3)s2)cnn1C` [Example 129], the IC50 on V599E Raf lay within 1000 to 10000 nM. Further, the 50% effective concentration (EC50) in assay [1] was 1000 to 10000 nM.

For `COc1ccc(C(F)(F)F)cc1NC(=O)c1cc([C@@H](C)NC(=O)c2cnn3ccccc23)no1` [Example 214], at V599E Raf, the IC50 was in the range of 100 to 1000 nM. Moreover, the 50% effective concentration (EC50) in assay [1] lay within 100 to 1000 nM.

Take `Cc1nn(C)cc1C(=O)N[C@H](C)c1ncc(C(=O)Nc2cc(C(F)(F)F)c(Cl)cn2)s1` [Example 123]: the IC50 on V599E Raf was in the range of 100 to 1000 nM. For the same compound, in assay [1], the concentration giving a half-maximal response (EC50) was 1000 to 10000 nM.

On to `C[C@@H](NC(=O)c1cscn1)c1ncc(C(=O)Nc2cc(C(F)(F)F)c(Cl)cn2)s1` [Example 95], for which the IC50 on V599E Raf was at most 100 nM. For the same compound, in assay [1], the 50% effective concentration (EC50) was in the range of 1000 to 10000 nM.

On to `CCn1cnc2cnc(C(=O)NC(C)c3cnc(Nc4ccc(C(F)(F)F)cc4)s3)cc21` (stereo not shown) [Example 6], for which the IC50 on V599E Raf is at most 100 nM. In addition, the EC50 in assay [1] was at most 100 nM.

As to `CC(NC(=O)c1cncc(N)c1)c1ncc(C(=O)Nc2cc(C(F)(F)F)c(Cl)cn2)s1` (stereo not shown) [Example 44], the IC50 at V599E Raf is at most 100 nM. Moreover, the EC50 in assay [1] was in the range of 1000 to 10000 nM.

Regarding `C[C@@H](NC(=O)c1cnn2ccccc12)c1cc(C(=O)Nc2nc3ccccc3[nH]2)on1` [Example 211], the IC50 at V599E Raf is at most 100 nM. The EC50 in assay [1] was in the range of 1000 to 10000 nM.

`C[C@@H](NC(=O)c1ccc2c(c1)OCCN2C)c1ncc(C(=O)Nc2cc(C(F)(F)F)c(Cl)cn2)s1` [Example 71]: at V599E Raf, the IC50 is at most 100 nM. Besides, the concentration giving a half-maximal response (EC50) in assay [1] is 1000 to 10000 nM.
